Tested on: MV-4-11 cells
Experiment: Gene expression microarray analysis (Affymetrix PrimeView) and GSEA
Assay type: cell-based, human
Set-up: RFU PODN (11730768_x_at) / Fold change /veh PODN (11730768_x_at) / RFU LINC00158 (11744669_a_at) / Fold change /veh LINC00158 (11744669_a_at) / RFU DUSP10 (11751237_a_at) / Fold change /veh DUSP10 (11751237_a_at) / RFU ID3 (11757404_x_at) / Fold change /veh ID3 (11757404_x_at) / RFU PLEKHG5 (11737974_s_at) / Fold change /veh PLEKHG5 (11737974_s_at) / RFU LRRC4B (11730491_at) / Fold change /veh LRRC4B (11730491_at) / RFU GIMAP4 (11747438_a_at) / Fold change /veh GIMAP4 (11747438_a_at) / RFU KRT8 (11758183_x_at) / Fold change /veh KRT8 (11758183_x_at) / RFU CNN1 (11734310_a_at) / Fold change /veh CNN1 (11734310_a_at) / RFU VPS37D (11726825_at) / Fold change /veh VPS37D (11726825_at) / RFU C10orf10 (11716522_x_at) / Fold change /veh C10orf10 (11716522_x_at) / RFU KIR2DL2 /// KIR2DL4 /// KIR2DL5A /// KIR2DL5B /// KIR2DS1 /// KIR2DS2 /// KIR2DS3 /// KIR2DS4 /// KIR3DL3 /// KIR3DL3 /// KIR3DS1 (11738374_at) / Fold change /veh KIR2DL2 /// KIR2DL4 /// KIR2DL5A /// KIR2DL5B /// KIR2DS1 /// KIR2DS2 /// KIR2DS3 /// KIR2DS4 /// KIR3DL3 /// KIR3DL3 /// KIR3DS1 (11738374_at) / RFU C1QL1 (11718748_at) / Fold change /veh C1QL1 (11718748_at) / RFU TMPRSS4 (11747572_a_at) / Fold change /veh TMPRSS4 (11747572_a_at) / RFU HAMP (11756126_x_at) / Fold change /veh HAMP (11756126_x_at) / RFU RNFT2 (11725882_a_at) / Fold change /veh RNFT2 (11725882_a_at) / RFU NR4A2 (11747474_a_at) / Fold change /veh NR4A2 (11747474_a_at) / RFU ABCC12 (11746883_a_at) / Fold change /veh ABCC12 (11746883_a_at) / RFU TMEM136 (11760407_x_at) / Fold change /veh TMEM136 (11760407_x_at) / RFU CLDN22 /// WWC2 (11732394_at) / Fold change /veh CLDN22 /// WWC2 (11732394_at) / RFU HLA-DPB1 (11760878_x_at) / Fold change /veh HLA-DPB1 (11760878_x_at) / RFU SPINT1 (11716480_a_at) / Fold change /veh SPINT1 (11716480_a_at) / RFU GAP43 (11754022_s_at) / Fold change /veh GAP43 (11754022_s_at) / RFU A4GNT (11735810_at) / Fold change /veh A4GNT (11735810_at) / RFU PRB3 (11715151_x_at) / Fold change /veh PRB3 (11715151_x_at) / RFU TUBB4B (11761932_at) / Fold change /veh TUBB4B (11761932_at) / RFU CAPN14 (11732068_a_at) / Fold change /veh CAPN14 (11732068_a_at) / RFU TMCC2 (11721928_a_at) / Fold change /veh TMCC2 (11721928_a_at) / RFU IRGQ (11745062_a_at) / Fold change /veh IRGQ (11745062_a_at) / RFU FAM174B (11720279_a_at) / Fold change /veh FAM174B (11720279_a_at) / RFU TMPRSS4 (11748680_a_at) / Fold change /veh TMPRSS4 (11748680_a_at) / RFU FAM212B (11763350_a_at) / Fold change /veh FAM212B (11763350_a_at) / RFU PLEKHG5 (11743358_a_at) / Fold change /veh PLEKHG5 (11743358_a_at) / RFU ZSCAN30 (11745921_a_at) / Fold change /veh ZSCAN30 (11745921_a_at) / RFU CMKLR1 (11741424_a_at) / Fold change /veh CMKLR1 (11741424_a_at) / RFU LOC101060620 /// MAPK8IP1 (11723275_at) / Fold change /veh LOC101060620 /// MAPK8IP1 (11723275_at) / RFU SPTSSB (11747773_x_at) / Fold change /veh SPTSSB (11747773_x_at) / RFU PRSS12 (11739890_at) / Fold change /veh PRSS12 (11739890_at) / RFU BIN1 (11741810_x_at) / Fold change /veh BIN1 (11741810_x_at) / RFU WNT11 (11732464_a_at) / Fold change /veh WNT11 (11732464_a_at) / RFU C10orf10 (11716521_a_at) / Fold change /veh C10orf10 (11716521_a_at) / RFU C5orf56 (11738089_at) / Fold change /veh C5orf56 (11738089_at) / RFU CYB561 (11721691_x_at) / Fold change /veh CYB561 (11721691_x_at) / RFU ANKRD19P (11752326_a_at) / Fold change /veh ANKRD19P (11752326_a_at) / RFU OR2T12 /// OR2T33 /// OR2T8 (11738714_s_at) / Fold change /veh OR2T12 /// OR2T33 /// OR2T8 (11738714_s_at) / RFU VCAN (11748164_a_at) / Fold change /veh VCAN (11748164_a_at) / RFU JSRP1 (11732532_at) / Fold change /veh JSRP1 (11732532_at) / RFU KRTAP10-11 (11738290_x_at) / Fold change /veh KRTAP10-11 (11738290_x_at) / RFU MYO3A (11730013_a_at) / Fold change /veh MYO3A (11730013_a_at) / RFU EBF3 (11725865_a_at) / Fold change /veh EBF3 (11725865_a_at) / RFU CAMK2N1 (11719241_x_at) / Fold change /veh CAMK2N1 (11719241_x_at) / RFU C5orf56 (11738088_a_at) / Fold change /veh C5orf56 (11738088_a_at) / RFU OLFML3 (11715873_a_at) / Fold change /veh OLFML3 (11715873_a_at) / RFU LOC100653217 /// NTM (11731650_a_at) / Fold change /veh LOC100653217 /// NTM (11731650_a_at) / RFU MAPK11 (11762145_a_at) / Fold change /veh MAPK11 (11762145_a_at) / RFU FIZ1 (11724087_x_at) / Fold change /veh FIZ1 (11724087_x_at) / RFU OASL (11726364_x_at) / Fold change /veh OASL (11726364_x_at) / RFU SOX15 (11748057_x_at) / Fold change /veh SOX15 (11748057_x_at) / RFU CD79A (11719716_a_at) / Fold change /veh CD79A (11719716_a_at) / RFU HIST1H1D (11736915_at) / Fold change /veh HIST1H1D (11736915_at) / RFU CASKIN2 (11723855_a_at) / Fold change /veh CASKIN2 (11723855_a_at) / RFU LOC730098 (11760151_x_at) / Fold change /veh LOC730098 (11760151_x_at) / RFU OR4N2 (11742367_at) / Fold change /veh OR4N2 (11742367_at) / RFU PRRT2 (11749266_a_at) / Fold change /veh PRRT2 (11749266_a_at) / RFU SNX32 (11753110_a_at) / Fold change /veh SNX32 (11753110_a_at) / RFU CDHR5 (11726645_a_at) / Fold change /veh CDHR5 (11726645_a_at) / RFU RCAN1 (11760418_a_at) / Fold change /veh RCAN1 (11760418_a_at) / RFU FAM167A (11723789_a_at) / Fold change /veh FAM167A (11723789_a_at) / RFU FAM26E (11764081_at) / Fold change /veh FAM26E (11764081_at) / RFU ISYNA1 (11749810_s_at) / Fold change /veh ISYNA1 (11749810_s_at) / RFU ACY1 (11761880_at) / Fold change /veh ACY1 (11761880_at) / RFU 11764098_at / Fold change /veh 11764098_at / RFU SAMD14 (11745864_x_at) / Fold change /veh SAMD14 (11745864_x_at) / RFU NPB (11741838_a_at) / Fold change /veh NPB (11741838_a_at) / RFU TMPRSS6 (11731388_a_at) / Fold change /veh TMPRSS6 (11731388_a_at) / RFU KRTAP10-2 (11738614_at) / Fold change /veh KRTAP10-2 (11738614_at) / RFU ARHGAP8 /// PRR5-ARHGAP8 (11727945_x_at) / Fold change /veh ARHGAP8 /// PRR5-ARHGAP8 (11727945_x_at) / RFU KRTAP5-7 /// NADSYN1 (11734609_at) / Fold change /veh KRTAP5-7 /// NADSYN1 (11734609_at) / RFU RASL12 (11751679_a_at) / Fold change /veh RASL12 (11751679_a_at) / RFU CDKN2B (11736163_a_at) / Fold change /veh CDKN2B (11736163_a_at) / RFU PRF1 (11729649_at) / Fold change /veh PRF1 (11729649_at) / RFU, ZNF638 /// ZNF638-IT1 / Fold change vs veh, ZNF638 /// ZNF638-IT1 / RFU, PANK3 / Fold change vs veh, PANK3 / RFU, SH3YL1 / Fold change vs veh, SH3YL1 / RFU, ZEB2 / Fold change vs veh, ZEB2 / RFU, NRIP1 / Fold change vs veh, NRIP1 / RFU, PTTG1IP / Fold change vs veh, PTTG1IP / RFU, CAPN2 / Fold change vs veh, CAPN2 / RFU, MED14 / Fold change vs veh, MED14 / RFU, SNORA58 / Fold change vs veh, SNORA58 / RFU, C1orf63 / Fold change vs veh, C1orf63 / RFU, LRRFIP1 / Fold change vs veh, LRRFIP1 / RFU, NDUFAF7 / Fold change vs veh, NDUFAF7 / RFU, SLC12A2 / Fold change vs veh, SLC12A2 / RFU, IBTK / Fold change vs veh, IBTK / RFU, ESF1 / Fold change vs veh, ESF1 / Fold change vs veh, TMEM50B / RFU, TAOK1 / Fold change vs veh, TAOK1 / RFU, ACBD3 / Fold change vs veh, ACBD3 / RFU, TMA16 / Fold change vs veh, TMA16 / RFU, RWDD3 / Fold change vs veh, RWDD3 / RFU, BCAT1 / Fold change vs veh, BCAT1 / RFU, EDEM3 / Fold change vs veh, EDEM3 / RFU, TMEM33 / Fold change vs veh, TMEM33 / RFU, WDR75 / Fold change vs veh, WDR75 / RFU, AHCTF1 / Fold change vs veh, AHCTF1 / RFU, TFRC / Fold change vs veh, TFRC / RFU, ZDHHC17 / Fold change vs veh, ZDHHC17 / RFU, NOM1 / Fold change vs veh, NOM1 / RFU, ARL8B / Fold change vs veh, ARL8B / RFU, ZBTB11 / Fold change vs veh, ZBTB11 / RFU, TAMM41 / Fold change vs veh, TAMM41 / RFU, KIAA1704 /// LOC100996395 / Fold change vs veh, KIAA1704 /// LOC100996395 / RFU, ING1 / Fold change vs veh, ING1 / RFU, TRMT61B / Fold change vs veh, TRMT61B / RFU, FUBP3 / Fold change vs veh, FUBP3 / RFU, TP53 / Fold change vs veh, TP53 / RFU, TNKS2 / Fold change vs veh, TNKS2 / RFU, ZFP14 / Fold change vs veh, ZFP14 / RFU, ACTR2 / Fold change vs veh, ACTR2 / RFU, PPP3R1 / Fold change vs veh, PPP3R1 / RFU, PIK3R1 / Fold change vs veh, PIK3R1 / RFU, HNRNPA1 / Fold change vs veh, HNRNPA1 / RFU, RNF170 / Fold change vs veh, RNF170 / RFU, ZNF28 / Fold change vs veh, ZNF28 / RFU, RNGTT / Fold change vs veh, RNGTT / RFU, OGT / Fold change vs veh, OGT / RFU, BRD1 / Fold change vs veh, BRD1 / RFU, MARS / Fold change vs veh, MARS / RFU, ZNF655 / Fold change vs veh, ZNF655 / RFU, FAHD1 / Fold change vs veh, FAHD1 / RFU, BDP1 / Fold change vs veh, BDP1 / RFU, LRRCC1 / Fold change vs veh, LRRCC1 / RFU, ARID1A / Fold change vs veh, ARID1A / RFU, ZNF146 / Fold change vs veh, ZNF146 / RFU, ZNF330 / Fold change vs veh, ZNF330 / RFU, GPN3 / Fold change vs veh, GPN3 / RFU, C9orf123 / Fold change vs veh, C9orf123 / RFU, N4BP2L2 / Fold change vs veh, N4BP2L2 / RFU, ARFIP1 / Fold change vs veh, ARFIP1 / RFU, FAM179B / Fold change vs veh, FAM179B / RFU, BCL10 / Fold change vs veh, BCL10 / RFU, UHRF1BP1L / Fold change vs veh, UHRF1BP1L / RFU, BET1 / Fold change vs veh, BET1 / RFU, CNOT2 / Fold change vs veh, CNOT2 / RFU, ZNF268 / Fold change vs veh, ZNF268 / Fold change vs veh, ZNF507 / RFU, DGCR2 / Fold change vs veh, DGCR2 / RFU, WDSUB1 / Fold change vs veh, WDSUB1 / Fold change vs veh, HSP90B1 /// MIR3652 / RFU, ADSS / Fold change vs veh, ADSS / RFU, GK / Fold change vs veh, GK / RFU, ZNF148 / Fold change vs veh, ZNF148 / RFU, TAF9 / Fold change vs veh, TAF9 / RFU, SLC1A5 / Fold change vs veh, SLC1A5 / RFU, SLMO2 / Fold change vs veh, SLMO2 / RFU, ABCC4 / Fold change vs veh, ABCC4 / RFU, LOC101060439 /// RAP1B / Fold change vs veh, LOC101060439 /// RAP1B / RFU, RFX7 / Fold change vs veh, RFX7 / RFU, GTPBP10 / Fold change vs veh, GTPBP10 / RFU, CNEP1R1 / Fold change vs veh, CNEP1R1 / RFU, BIVM-ERCC5 /// ERCC5 / Fold change vs veh, BIVM-ERCC5 /// ERCC5 / RFU, ILF3 / Fold change vs veh, ILF3 / RFU 11762660_at / Fold change /veh 11762660_at / RFU VCAN (11757783_s_at) / Fold change /veh VCAN (11757783_s_at) / RFU DDX43 (11728927_at) / Fold change /veh DDX43 (11728927_at) / RFU KRT8 (11758188_x_at) / Fold change /veh KRT8 (11758188_x_at) / RFU NKD1 (11759106_at) / Fold change /veh NKD1 (11759106_at) / RFU SRD5A1 (11742802_a_at) / Fold change /veh SRD5A1 (11742802_a_at) / RFU TPSAB1 /// TPSB2 (11721975_s_at) / Fold change /veh TPSAB1 /// TPSB2 (11721975_s_at) / RFU GSTM3 (11746129_a_at) / Fold change /veh GSTM3 (11746129_a_at) / RFU IL23R (11737362_x_at) / Fold change /veh IL23R (11737362_x_at) / RFU TMEM51 (11727254_a_at) / Fold change /veh TMEM51 (11727254_a_at) / RFU PIWIL2 (11732686_x_at) / Fold change /veh PIWIL2 (11732686_x_at) / RFU ORM1 (11744905_x_at) / Fold change /veh ORM1 (11744905_x_at) / RFU CCDC152 (11743942_at) / Fold change /veh CCDC152 (11743942_at) / RFU ECM1 (11717891_a_at) / Fold change /veh ECM1 (11717891_a_at) / RFU IL23R (11748794_a_at) / Fold change /veh IL23R (11748794_a_at) / RFU TNFAIP8L3 (11732012_x_at) / Fold change /veh TNFAIP8L3 (11732012_x_at) / RFU MBOAT4 (11741988_at) / Fold change /veh MBOAT4 (11741988_at) / RFU 11764193_at / Fold change /veh 11764193_at / RFU TMEM53 (11763286_at) / Fold change /veh TMEM53 (11763286_at) / RFU MAGEB2 (11727129_at) / Fold change /veh MAGEB2 (11727129_at) / RFU TMEM200A (11744735_a_at) / Fold change /veh TMEM200A (11744735_a_at) / RFU CCDC152 (11751479_a_at) / Fold change /veh CCDC152 (11751479_a_at) / RFU FAM211A (11726209_a_at) / Fold change /veh FAM211A (11726209_a_at) / RFU RGS16 (11746705_a_at) / Fold change /veh RGS16 (11746705_a_at) / RFU VCAN (11755009_s_at) / Fold change /veh VCAN (11755009_s_at) / RFU RHOB (11743442_s_at) / Fold change /veh RHOB (11743442_s_at) / RFU RGS16 (11720943_a_at) / Fold change /veh RGS16 (11720943_a_at) / RFU RGS16 (11720944_at) / Fold change /veh RGS16 (11720944_at) / RFU, VPS4B / Fold change vs veh, VPS4B / RFU, CREB1 / Fold change vs veh, CREB1 / RFU, DNAJC13 / Fold change vs veh, DNAJC13 / RFU, GNAQ / Fold change vs veh, GNAQ / RFU, CDK5R1 / Fold change vs veh, CDK5R1 / RFU, ZRANB3 / Fold change vs veh, ZRANB3 / RFU, CUL4A / Fold change vs veh, CUL4A / RFU, CCNY / Fold change vs veh, CCNY / RFU, UFL1 / Fold change vs veh, UFL1 / RFU, COG3 / Fold change vs veh, COG3 / RFU, DIAPH2 / Fold change vs veh, DIAPH2 / RFU, SKA2 / Fold change vs veh, SKA2 / RFU, AFF3 / Fold change vs veh, AFF3 / RFU, LMF1 / Fold change vs veh, LMF1 / RFU, IPO11 / Fold change vs veh, IPO11 / RFU, DFFB / Fold change vs veh, DFFB / RFU, FOXP1 / Fold change vs veh, FOXP1 / RFU, CARD8 / Fold change vs veh, CARD8 / RFU, STRN3 / Fold change vs veh, STRN3 / RFU, ADK / Fold change vs veh, ADK / RFU, RASSF2 / Fold change vs veh, RASSF2 / RFU, WIPF1 / Fold change vs veh, WIPF1 / RFU, LARP1B / Fold change vs veh, LARP1B / RFU, RASA1 / Fold change vs veh, RASA1 / RFU, RB1 / Fold change vs veh, RB1 / RFU, PPFIA1 / Fold change vs veh, PPFIA1 / RFU, MAT2A / Fold change vs veh, MAT2A / RFU, CCT5 / Fold change vs veh, CCT5 / RFU, WDR92 / Fold change vs veh, WDR92 / RFU, CUX1 / Fold change vs veh, CUX1 / RFU, TTC7A / Fold change vs veh, TTC7A / RFU, TMEM135 / Fold change vs veh, TMEM135 / RFU, DEPTOR / Fold change vs veh, DEPTOR / RFU, CPM / Fold change vs veh, CPM / RFU, DNAJB6 / Fold change vs veh, DNAJB6 / RFU, CACNA2D3 / Fold change vs veh, CACNA2D3 / RFU, DTX4 / Fold change vs veh, DTX4 / RFU, TFCP2 / Fold change vs veh, TFCP2 / RFU, GMCL1 /// GMCL1P1 / Fold change vs veh, GMCL1 /// GMCL1P1 / RFU, AEBP2 / Fold change vs veh, AEBP2 / RFU, SNHG1 /// SNORD22 /// SNORD25 /// SNORD26 /// SNORD27 /// SNORD28 /// SNORD29 /// SNORD31 / Fold change vs veh, SNHG1 /// SNORD22 /// SNORD25 /// SNORD26 /// SNORD27 /// SNORD28 /// SNORD29 /// SNORD31 / Fold change (Aza/veh), C12orf56 (ProbeSet 11735607_a_at) / Fold change (ACY-1035/veh), C12orf56 (ProbeSet 11735607_a_at) / Fold change (Aza/veh), FGFR1OP (ProbeSet 11751329_s_at) / Fold change (ACY-1035/veh), FGFR1OP (ProbeSet 11751329_s_at) / Fold change (Aza/veh), VPS36 (ProbeSet 11739960_a_at) / Fold change (ACY-1035/veh), VPS36 (ProbeSet 11739960_a_at) / RFU SYPL1 (11715823_x_at) / Fold change /veh SYPL1 (11715823_x_at) / RFU IGFBP7 (11715501_s_at) / Fold change /veh IGFBP7 (11715501_s_at) / RFU REEP3 (11722064_at) / Fold change /veh REEP3 (11722064_at) / RFU IGLL1 (11728026_x_at) / Fold change /veh IGLL1 (11728026_x_at): dose or concentration left out as unconfirmed
Settings: MV-4-11 cells, 48 hours

Nc1ncn([C@@H]2O[C@H](CO)[C@@H](O)[C@H]2O)c(=O)n1 [azacitidine]
RFU FAM167A (11723789_a_at): 38.83 RFU
